Assay results from ChEMBL document CHEMBL5252512, “Recent Progress in the Development of HIV-1 Protease Inhibitors for the Treatment of HIV/AIDS” (J Med Chem, 2016).

What was measured:
[1] = system: Human immunodeficiency virus 1; test: Antiviral activity against wild type HIV1 r13205 infected in human MT4 cells expressing LTR and EGFP assessed as inhibition of virus-induced cytopathic effect by fluorescence microscopic analysis; type: functional, organism-based; details: Human immunodeficiency virus 1, r13205, MT4
[2] = system: Human immunodeficiency virus 1; test: Antiviral activity against HIV1 T20760 infected in human MT4 cells expressing LTR and EGFP assessed as inhibition of virus-induced cytopathic effect by fluorescence microscopic analysis; type: functional, organism-based; details: Human immunodeficiency virus 1, T20760, MT4
[3] = system: Human immunodeficiency virus 1; test: Antiviral activity against HIV1 T21055 infected in human MT4 cells expressing LTR and EGFP assessed as inhibition of virus-induced cytopathic effect by fluorescence microscopic analysis; type: functional, organism-based; details: Human immunodeficiency virus 1, T21055, MT4
[4] = system: Human immunodeficiency virus 1; test: Antiviral activity against HIV1 T21217 infected in human MT4 cells expressing LTR and EGFP assessed as inhibition of virus-induced cytopathic effect by fluorescence microscopic analysis; type: functional, organism-based; details: Human immunodeficiency virus 1, T21217, MT4
[5] = system: Human immunodeficiency virus 1; test: Antiviral activity against HIV1 T13436 infected in human MT4 cells expressing LTR and EGFP assessed as inhibition of virus-induced cytopathic effect by fluorescence microscopic analysis; type: functional, organism-based; details: Human immunodeficiency virus 1, T13436, MT4
[6] = system: Human immunodeficiency virus 1; test: Antiviral activity against HIV1 T13572 infected in human MT4 cells expressing LTR and EGFP assessed as inhibition of virus-induced cytopathic effect by fluorescence microscopic analysis; type: functional, organism-based; details: Human immunodeficiency virus 1, T13572, MT4
[7] = system: Human immunodeficiency virus 1; test: Antiviral activity against HIV1 T13632 infected in human MT4 cells expressing LTR and EGFP assessed as inhibition of virus-induced cytopathic effect by fluorescence microscopic analysis; type: functional, organism-based; details: Human immunodeficiency virus 1, T13632, MT4
[8] = system: Human immunodeficiency virus 1; test: Antiviral activity against HIV1 T13717 infected in human MT4 cells expressing LTR and EGFP assessed as inhibition of virus-induced cytopathic effect by fluorescence microscopic analysis; type: functional, organism-based; details: Human immunodeficiency virus 1, T13717, MT4
[9] = system: Human immunodeficiency virus 1; test: Ratio of EC50 for antiviral activity against HIV1-T20760 to EC50 for antiviral activity against wild type HIV1 r13205; type: functional
[10] = system: Human immunodeficiency virus 1; test: Ratio of EC50 for antiviral activity against HIV1-T21055 to EC50 for antiviral activity against wild type HIV1 r13205; type: functional
[11] = system: Human immunodeficiency virus 1; test: Ratio of EC50 for antiviral activity against HIV1-T21217 to EC50 for antiviral activity against wild type HIV1 r13205; type: functional
[12] = system: Human immunodeficiency virus 1; test: Ratio of EC50 for antiviral activity against HIV1-T13436 to EC50 for antiviral activity against wild type HIV1 r13205; type: functional
[13] = system: Human immunodeficiency virus 1; test: Ratio of EC50 for antiviral activity against HIV1-T13572 to EC50 for antiviral activity against wild type HIV1 r13205; type: functional
[14] = system: Human immunodeficiency virus 1; test: Ratio of EC50 for antiviral activity against HIV1-T13632 to EC50 for antiviral activity against wild type HIV1 r13205; type: functional
[15] = system: Human immunodeficiency virus 1; test: Ratio of EC50 for antiviral activity against HIV1-T13717 to EC50 for antiviral activity against wild type HIV1 r13205; type: functional
[16] = biological target: T1, Human immunodeficiency virus type 1 protease (Human immunodeficiency virus 1, UniProt Q72874); test: Binding affinity to HIV1 recombinant wild type protease expressed in Escherichia coli BL21(DE3) assessed as inhibition constant
[17] = system: Human immunodeficiency virus 1; test: Antiviral activity against HIV1 LAI infected in human MT2 cells assessed as inhibition of virus-induced cytopathic effect by MTT assay; type: functional, organism-based; details: Human immunodeficiency virus 1, LAI
[18] = biological target: T1, Human immunodeficiency virus type 1 protease; test: Binding affinity to HIV1 protease assessed as inhibition constant
[19] = system: Human immunodeficiency virus 1; test: Antiviral activity against wild type HIV1 ERS104pre infected in human PBMC cells assessed as inhibition of virus-induced cytopathic effect measured after 7 days by MTT assay; type: functional, organism-based; details: Human immunodeficiency virus 1, ERS104pre, 168 h
[20] = system: Human immunodeficiency virus 1; test: Antiviral activity against multidrug-resistant HIV1-TM infected in phytohemagglutinin-activated human PBMC cells assessed as inhibition of virus-induced cytopathic effect measured after 7 days by MTT assay; type: functional, organism-based; details: Human immunodeficiency virus 1, TM, 168 h
[21] = system: Human immunodeficiency virus 1; test: Antiviral activity against multidrug-resistant HIV1-MM infected in phytohemagglutinin-activated human PBMC cells assessed as inhibition of virus-induced cytopathic effect measured after 7 days by MTT assay; type: functional, organism-based; details: Human immunodeficiency virus 1, MM, 168 h
[22] = system: Human immunodeficiency virus 1; test: Antiviral activity against multidrug-resistant HIV1-JSL infected in phytohemagglutinin-activated human PBMC cells assessed as inhibition of virus-induced cytopathic effect measured after 7 days by MTT assay; type: functional, organism-based; details: Human immunodeficiency virus 1, JSL, 168 h
[23] = system: Human immunodeficiency virus 1; test: Antiviral activity against multidrug-resistant HIV1-B infected in phytohemagglutinin-activated human PBMC cells assessed as inhibition of virus-induced cytopathic effect measured after 7 days by MTT assay; type: functional, organism-based; details: Human immunodeficiency virus 1, B, 168 h
[24] = system: Human immunodeficiency virus 1; test: Antiviral activity against multidrug-resistant HIV1-C infected in phytohemagglutinin-activated human PBMC cells assessed as inhibition of virus-induced cytopathic effect measured after 7 days by MTT assay; type: functional, organism-based; details: Human immunodeficiency virus 1, C, 168 h
[25] = system: Human immunodeficiency virus 1; test: Antiviral activity against multidrug-resistant HIV1-G infected in phytohemagglutinin-activated human PBMC cells assessed as inhibition of virus-induced cytopathic effect measured after 7 days by MTT assay; type: functional, organism-based; details: Human immunodeficiency virus 1, G, 168 h
[26] = system: Human immunodeficiency virus 1; test: Ratio of EC50 for antiviral activity against HIV1-TM to EC50 for antiviral activity against wild type HIV1 ERS104pre; type: functional
[27] = system: Human immunodeficiency virus 1; test: Ratio of EC50 for antiviral activity against HIV1-MM to EC50 for antiviral activity against wild type HIV1 ERS104pre; type: functional
[28] = system: Human immunodeficiency virus 1; test: Ratio of EC50 for antiviral activity against HIV1-JSL to EC50 for antiviral activity against wild type HIV1 ERS104pre; type: functional
[29] = system: Human immunodeficiency virus 1; test: Ratio of EC50 for antiviral activity against HIV1-B to EC50 for antiviral activity against wild type HIV1 ERS104pre; type: functional
[30] = system: Human immunodeficiency virus 1; test: Ratio of EC50 for antiviral activity against HIV1-C to EC50 for antiviral activity against wild type HIV1 ERS104pre; type: functional
[31] = system: Human immunodeficiency virus 1; test: Ratio of EC50 for antiviral activity against HIV1-G to EC50 for antiviral activity against wild type HIV1 ERS104pre; type: functional
[32] = Cytotoxicity against human MT2 cells assessed as reduction in cell viability by MTT assay; type: toxicity, cell-based
[33] = Selectivity index, ratio of CC50 for human MT2 cells to IC50 for antiviral activity against HIV1 LAI; type: toxicity; details: read-out: Ratio CC50/EC50
[34] = Lipophilicity, logP of the compound in Octanol/water by shake-flask method; type: physicochemical
[35] = Lipophilicity, logD of the compound in Octanol/buffer by shake-flask method; type: physicochemical
[36] = Apparent permeability in rat astrocytes/rat pericytes/monkey endothelial cells triple cell co-culture system incubated for 30 mins by spectrophotometric analysis; type: ADME, cell-based
[37] = biological target: T1, Human immunodeficiency virus type 1 protease; test: Inhibition of recombinant wildtype HIV1 Protease using Abz-Thr-Ile-Nle-Phe(NO2)-Gln-Arg peptide as substrate
[38] = system: Human immunodeficiency virus 1; test: Antiviral activity against darunavir-resistant HIV1 10P infected in phytohemagglutinin-activated human PBMC cells assessed as inhibition of virus-induced cytopathic effect measured after 7 days by MTT assay; type: functional, organism-based; details: Human immunodeficiency virus 1, 10P, 168 h
[39] = system: Human immunodeficiency virus 1; test: Antiviral activity against darunavir-resistant HIV1 20P infected in phytohemagglutinin-activated human PBMC cells assessed as inhibition of virus-induced cytopathic effect measured after 7 days by MTT assay; type: functional, organism-based; details: Human immunodeficiency virus 1, 20P, 168 h
[40] = system: Human immunodeficiency virus 1; test: Ratio of EC50 for antiviral activity against darunavir-resistant HIV1 10P to EC50 for antiviral activity against wild type HIV1 ERS104pre; type: functional
[41] = system: Human immunodeficiency virus 1; test: Ratio of EC50 for antiviral activity against darunavir-resistant HIV1 20P to EC50 for antiviral activity against wild type HIV1 ERS104pre; type: functional

## CC(C)CN(C[C@@H](O)[C@H](Cc1ccccc1)NC(=O)O[C@H]1CO[C@H]2OCC[C@H]21)S(=O)(=O)c1ccc2sc(NC3CCN(C4CCCC4)CC3)nc2c1
[1]
  EC50: 26 nM
[2]
  EC50: 65 nM
[3]
  EC50: 308 nM
[4]
  EC50: 312 nM
[5]
  EC50: 5.1 nM
[6]
  EC50: 1.5 nM
[7]
  EC50: 42 nM
[8]
  EC50: 68 nM
[9]
  Ratio EC50: 2.5
[10]
  Ratio EC50: 12
[11]
  Ratio EC50: 12
[12]
  Ratio EC50: 0.2
[13]
  Ratio EC50: 0.058
[14]
  Ratio EC50: 1.6
[15]
  Ratio EC50: 2.6

## CC(C)CN(C[C@@H](O)[C@H](Cc1ccccc1)NC(=O)O[C@H]1CO[C@H]2OCC[C@H]21)S(=O)(=O)c1ccc(C(=O)O)cc1
[16]
  Ki: 0.0127 nM
[17]
  EC50: > 10000 nM

## COc1ccc(S(=O)(=O)N(CC(C)C)C[C@@H](O)[C@H](Cc2ccccc2)NC(=O)O[C@H]2CO[C@H]3OCC(F)(F)[C@H]32)cc1
[18]
  Ki: 0.8 nM
[17]
  EC50: 0.8 nM
[19]
  EC50: 2.3 nM
[20]
  EC50: 4 nM
[21]
  EC50: 2 nM
[22]
  EC50: 21 nM
[23]
  EC50: 14 nM
[24]
  EC50: 2 nM
[25]
  EC50: 4 nM
[26]
  Ratio EC50: 2
[27]
  Ratio EC50: 1
[28]
  Ratio EC50: 10
[29]
  Ratio EC50: 7
[30]
  Ratio EC50: 1
[31]
  Ratio EC50: 2
[32]
  CC50: 17500 nM
[33]
  selectivity ratio: 21900
[34]
  logP: -0.14
[35]
  logD: -0.29
[36]
  Papp at 0.5 h: 61.8 ×10⁻⁶ cm/s

## CC(C)(C)NC(=O)[C@@H]1C[C@@H]2CCCC[C@@H]2CN1C[C@@H](O)[C@@H](NC(=O)[C@H](CC(N)=O)NC(=O)c1ccc2ccccc2n1)c1cccs1
[37]
  IC50: 5000 nM

## Cc1c(O)cccc1C(=O)N[C@@H](c1cccs1)[C@H](O)CN1C[C@H]2CCCC[C@H]2C[C@H]1C(=O)NC(C)(C)C
[37]
  IC50: 30000 nM

## COC(=O)N[C@H](C(=O)N[C@@H](Cc1ccccc1)[C@@H](O)CN(Cc1ccc(-c2ccccn2)cc1)NC(=O)[C@@H](NC(=O)OC)C(C)(C)C)C(C)(C)C [ATAZANAVIR]
[19]
  EC50: 2.1 nM
[20]
  EC50: 56 nM
[21]
  EC50: 81 nM
[22]
  EC50: > 211 nM
[23]
  EC50: 450 nM
[24]
  EC50: 38.8 nM
[25]
  EC50: 19.4 nM
[26]
  Ratio EC50: 24
[27]
  Ratio EC50: 20
[28]
  Ratio EC50: >78
[29]
  Ratio EC50: 174
[30]
  Ratio EC50: 14
[31]
  Ratio EC50: 7
[38]
  EC50: 323 nM
[39]
  EC50: > 1000 nM
[40]
  Ratio EC50: 77
[41]
  Ratio EC50: >370
